Where no end group is shown, it is not given here. The star is where a group is joined. FITC = O=C1OC2(c3ccc(O)cc3Oc3cc(O)ccc32)c2ccc(NC(=S)*)cc21; Acp = not defined here
Experiments:
[1] = tested on: SCC‐13 cells; test: Flow cytometry binding of FITC‐RS17 to SCC‐13 cells; type: cell-based, human; conditions: 1 μM FITC‐RS17, 1 h, 37℃
Description: (§1) The peptides were synthesized using the solid‐phase peptide synthesis method. Amino acid activation phase included 1‐hydroxybenzotriazole (HOBt) and N, N′‐diisopropylcarbodiimide (DIC). Deprotection agent was piperidine (PIP). Following synthesis, the peptides were cleaved with 90% of trifluoroacetic acid (TFA) and precipitated with ether to obtain the crude product. The crude peptides were purified by HPLC and the molecular weight were measured by online ESI‐MS, respectively. Besides, the FITC‐RS17 peptide was prepared by coupling with FITC through the Acp active group to RS17. The product was purified and analyzed by the same process.
(§2) The SCC‐13 human cutaneous squamous cell carcinoma cell lines, HepG2 human HCC cell line, THP‐1 human mononuclear cell line, and mouse mononuclear/macrophage cell lines were from Chinese Academy of Sciences in Shanghai. SCC‐13 and HepG2 cells were incubated in DMEM medium which contains 100 μg/ml of streptomycin and 50 μg/ml of penicillin. The medium also contains 10% of fetal bovine serum from Gibco Life Technologies. […]
(§3) The binding of RS17 to the CD47‐expressing cells were assessed by the Flow cytometry technique. […]. ^14 In brief, HepG2 and SCC‐13 cells were collected and adjusted to 3 × 10^6 cells/ml. […] After washing with PBS, the cells were analyzed with a flow cytometer (Miltenyi Biotec GmbH). Data were analyzed with FlowJo 7.6.

[2] = tested on: HepG2 cells; test: Flow cytometry binding of FITC‐RS17 to HepG2 cells; type: cell-based, human; conditions: 1 μM FITC‐RS17, 1 h, 37℃
Description: as §1, §2, §3

[3] = target: T1, CD47 protein (Homo sapiens, UniProt Q08722); test: Microscale thermophoresis (MST), RS17–CD47 interaction; type: binding; conditions: Monolith NT.115, NT‐Analysis, Cy5-labeled CD47 mixed 1:1 with diluted peptide, 5 min, room temperature, read-out: dissociation constant (Kd) for RS17 and CD47 interaction
T1 construct: CD47 protein was from Cloud‐Clone; purchased Cloud‐Clone
Description: CD47 protein was from Cloud‐Clone. The CD47 protein was dissolved in a buffer solution without primary amine compounds and exchanged by mixed column A. The CD47 protein was stained by Cy5 fluorescent dye (Ruixin Biological Technology) and after staining, the labeled protein was purified by column B. Finally, the RS17 peptides were diluted and mixed with the labeled protein in a 1:1 ratio. After incubating at room temperature for 5 min, samples were detected and data were processed by Monolith NT.115 and NT‐Analysis, which were from NanoTemper.
Microscale thermophoresis (MST) is an effective technique that accurately quantitates the interaction between two molecules. It depends on the thermo‐swimming movement of a molecule, which is a directional transfer of the molecule across a temperature gradient dependent on molecular properties such as molecular size, electric charge, and conformation. ^39 A Monolith NT.115 instrument was used as a platform to perform the MST experiment and the results were analyzed using the accompanying NT‐Analysis software.

[4] = tested on: RFP HepG2 cells; conditions: in vivo, sc, 20 mg/kg
Description: RFP (CMV‐Puro) lentiviral particles were purchased from HanBio. 5 × 10^4 HepG2 in DMEM medium were seeded into each well of a 12‐well plate in presence of 10% FBS. A 6 μg/ml of Polybrene and 20 MOI lentivirus were added to each well. The cells were resuspended in DMEM medium in presence of 8 μg/ml puromycin after a 48‐h transfection. DMEM medium with 8 μg/ml of puromycin was replaced every 2 days for 1 week. RFP‐positive HepG2 cells were then acquired by flow cytometry. Polybrene and puromycin were from Sigma. Nude mice were subcutaneously injected with 2 × 10^7 RFP HepG2 cells into the ventral side and separated into three groups (5 per group). One of the groups was selected as the experimental group and received a daily subcutaneous injection with RS17 (20 mg/kg), the other two groups represented a positive control and a blank control and received a daily subcutaneous injection with B6H12 (20 mg/kg) and PBS, respectively. Daily injections were administered for 28 days. Body weight, tumor volume, and imaging on day 28 were carried out described above.

[5] = Body weight / tolerability in nude mice, ex vivo experiment; conditions: 7 days
Description: Female Balb/c nude mice (4–5 weeks) were bred in the absence of pathogens to assess the antitumor activity of indirect therapies in vivo.
RFP‐positive HepG2 cells at a concentration of 2 × 10^7/ml were first co‐incubated for 1 h with 1 μM B6H12 (positive control) or RS17. The nude mice were separated into three groups (5 per group) and subcutaneously injected with 200 μl RFP‐positive HepG2 cells into the ventral side. Normal feeding lasted for 7 days. Body weight and tumor volume were measured in nude mice. Tumor dimensions were measured in two directions with and the formula of ½ × a × b ^2 (a, length; b, width) was used to calculate tumor volume. The intravital fluorescence intensity of the tumors were detected with PerkinElmer IVIS Spectrum on day 7.

[6] = target: CD47 on SCC-13 and HepG2 tumor cells (human (endogenous in SCC-13 and HepG2)) (UniProt Q08722)
Chain of CD47 on SCC-13 and HepG2 tumor cells (human (endogenous in SCC-13 and HepG2)) (Q08722 19-323): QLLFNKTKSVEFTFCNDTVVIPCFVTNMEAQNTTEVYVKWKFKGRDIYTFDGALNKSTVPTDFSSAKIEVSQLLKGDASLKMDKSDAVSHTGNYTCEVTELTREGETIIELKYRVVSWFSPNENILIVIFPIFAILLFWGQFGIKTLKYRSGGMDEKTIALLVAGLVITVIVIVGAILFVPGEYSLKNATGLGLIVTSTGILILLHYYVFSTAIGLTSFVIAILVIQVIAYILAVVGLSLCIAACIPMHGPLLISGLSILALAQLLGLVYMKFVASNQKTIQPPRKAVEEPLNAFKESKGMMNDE

Question: Which “binding of FITC‐RS17 to SCC‐13 cells (in words)” value [1] does the source give for “FITC‐RS17: prepared by coupling with FITC through the Acp active group to RS17 ({FITC-Acp}-RRYKQDGGWSHWSPWSS; reading uncertain)” here?
Answer: Its value is “effectively bound”.

Question: And the “binding of FITC‐RS17 to HepG2 cells (in words)” value [2]?
Answer: The value was “effectively bound”.

Question: For RRYKQDGGWSHWSPWSS [RS17], which Kd [3] is on record?
Answer: Its Kd is 3.86 ± 0.789 nM.

Question: What about the “inhibition of tumor growth” value [4] of the same molecule?
Answer: Its value is over 50%.

Question: What about the tolerability [5] of the same molecule?
Answer: The tolerability was “well tolerated”.

B1: RS17 peptide (peptide)
peptide: RRYKQDGGWSHWSPWSS
Question: Which in vivo: growth of HepG2 xenografts in nude mice with daily subcutaneous RS17 (20 mg/kg) for 28 days; pair blocked: CD47 on HepG2 and SIRPα on mouse macrophages [6] does the source give for B1 here?
Answer: The in vivo: growth of HepG2 xenografts in nude mice with daily subcutaneous RS17 (20 mg/kg) for 28 days; pair blocked: CD47 on HepG2 and SIRPα on mouse macrophages was over 50%.
